Data reported in ChEMBL document CHEMBL1150945, “New p-terphenyl and polyketide metabolites from the sclerotia of Penicillium raistrickii” (1998).
The source made the active and inactive calls. The rule behind the calls is not given here.

Key:
Candida albicans = test: Antifungal activity against Candida albicans ATCC 14053 at 200 ug/disk by standard disk assay; assay type: functional, organism-based
Staphylococcus aureus = test: Antibacterial activity against Staphylococcus aureus ATCC 29213 at 200 ug/disk by standard disk assay; assay type: functional; details: read-out: IZ
Bacillus subtilis = test: Antibacterial activity against Bacillus subtilis ATCC 6051 at 200 ug/disk by standard disk assay; assay type: functional; details: read-out: IZ
Helicoverpa zea [1] = test: Insecticidal activity against corn ear worm larvae at 500 ppm relative to control; assay type: functional
Helicoverpa zea [2] = test: Insecticidal activity against corn ear worm larvae at 400 to 500 ppm relative to control; assay type: functional
Carpophilus = test: Antiinsectan activity against Carpophilus hemipterus assessed as reduction in feeding rate at 400 to 500 ppm relative to control; assay type: functional; set-up: scale not given: the % may be the effect or the level left

Row | Structure (SMILES) | Activity (Candida albicans) | zone of inhibition at 200 µg/disc (Staphylococcus aureus) [mm] | zone of inhibition at 200 µg/disc (Bacillus subtilis) [mm] | Activity (Helicoverpa zea [1]) [%] | Activity (Helicoverpa zea [2]) [%] | Activity (Carpophilus) [%]
1 | COc1c(-c2ccc(O)c(O)c2)cc(O)c2c1oc1cc(O)c(O)cc12 | inactive |  |  |  |  | 
2 | Cc1cc(O)c(O)c2oc3cc(O)cc(O)c3c(=O)c12 | inactive | 11 | 12 |  |  | 
3 | COc1c(-c2ccc(O)c(O)c2)cc(O)c(-c2ccc(O)c(O)c2)c1O | inactive | 13 |  | 28 |  | 
4 | COC1=CC(=O)C[C@@H](C)[C@]12Oc1c(Cl)c(OC)cc(OC)c1C2=O [GRISEOFULVIN] |  |  |  |  | 70 | 30
